Measurements from the NIST ThermoML archive (doi:10.1021/acs.jced.7b00503).

Experiment: wn = mass fraction of the nth substance listed
Conditions: Pendant drop shape

[Br-].[K+] [potassium bromide] + O
surface tension liquid-gas [mN/m]
Conditions | w1 = 0.05 | w1 = 0.1 | w1 = 0.15 | w1 = 0.2 | w1 = 0.25 | w1 = 0.3 | w1 = 0.35 | w1 = 0.4
293.15 K | 73.93 | 74.51 | 74.9 | 75.3 | 76.16 | 77.43 | 78.85 | 80.3
303.15 K | 72.42 | 73.05 | 73.27 | 73.82 | 74.82 | 76.15 | 77.51 | 78.92
313.15 K | 70.85 | 71.44 | 71.74 | 72.29 | 73.39 | 74.72 | 76.17 | 77.58
323.15 K | 69.14 | 69.86 | 70.21 | 70.82 | 71.86 | 73.23 | 74.64 | 76.06
333.15 K | 67.31 | 67.95 | 68.49 | 69.25 | 70.24 | 71.64 | 73.11 | 74.53
343.15 K | 65.4 | 66.14 | 66.77 | 67.46 | 68.61 | 69.93 | 71.39 | 72.87
353.15 K | 63.44 | 64.11 | 64.86 | 65.73 | 66.79 | 68.15 | 69.57 | 71.22

[Cl-].[K+] [potassium chloride] + O
surface tension liquid-gas [mN/m]
Conditions | w1 = 0.025 | w1 = 0.05 | w1 = 0.075 | w1 = 0.1 | w1 = 0.125 | w1 = 0.15 | w1 = 0.175 | w1 = 0.2
293.15 K | 73.32 | 73.89 | 74.52 | 75.13 | 75.61 | 76.15 | 77.1 | 77.99
303.15 K | 71.83 | 72.44 | 73.09 | 73.68 | 74.44 | 75.18 | 75.74 | 76.32
313.15 K | 70.27 | 71.05 | 71.66 | 72.24 | 72.88 | 73.56 | 74.18 | 74.82
323.15 K | 68.58 | 69.17 | 69.84 | 70.49 | 71.12 | 71.74 | 72.36 | 73
333.15 K | 66.95 | 67.7 | 68.21 | 68.76 | 69.37 | 69.83 | 70.47 | 71.1
343.15 K | 65 | 65.55 | 66.46 | 67.35 | 67.94 | 68.47 | 69.17 | 69.81
353.15 K | 63.25 | 63.91 | 64.64 | 65.37 | 66.05 | 66.73 | 67.35 | 68.12

[I-].[K+] [potassium iodide] + O
surface tension liquid-gas [mN/m]
Conditions | 293.15 K | 298.15 K | 303.15 K | 313.15 K | 323.15 K | 333.15 K
w1 = 0.01 | 73.24 | 72.53 | 71.81 | 70.45 | 68.95 | 67.52
w1 = 0.02 | 73.65 | 73 | 72.35 | 71.05 | 69.69 | 68.36
w1 = 0.03 | 74.15 | 73.57 | 72.85 | 71.62 | 70.32 | 68.95
w1 = 0.04 | 75.05 | 74.45 | 73.7 | 72.4 | 71.2 | 69.75
w1 = 0.05 | 75.44 | 74.79 | 74 | 72.7 | 71.47 | 69.98
w1 = 0.06 | 76.12 | 75.4 | 74.75 | 73.39 | 72.15 | 70.53
w1 = 0.07 | 76.76 | 76.04 | 75.39 | 74.09 | 72.6 | 70.97
w1 = 0.08 | 77.23 | 77.03 | 76.15 | 74.96 | 73.86 | 72.7
w1 = 0.09 | 78.32 | 77.68 | 77.09 | 75.86 | 74.62 | 73.19
w1 = 0.1 | 79.11 | 78.6 | 78 | 76.83 | 75.66 | 74.36
w1 = 0.11 | 80.21 | 79.5 | 78.84 | 77.67 | 76.43 | 75.26
w1 = 0.12 | 81.04 | 80.2 | 79.51 | 78.4 | 77.16 | 75.86

[Br-].[Na+] [sodium bromide] + O
surface tension liquid-gas [mN/m]
Conditions | w1 = 0.05 | w1 = 0.1 | w1 = 0.15 | w1 = 0.2 | w1 = 0.25 | w1 = 0.3 | w1 = 0.35 | w1 = 0.4
293.15 K | 74.11 | 75.5 | 76.51 | 77.4 | 78.93 | 80.32 | 82 | 83.5
303.15 K | 72.43 | 73.5 | 74.83 | 75.4 | 77.25 | 78.62 | 80.31 | 81.93
313.15 K | 70.75 | 72 | 73.14 | 74.1 | 75.68 | 77.05 | 78.73 | 80.36
323.15 K | 69.07 | 70 | 71.36 | 72.6 | 74 | 75.26 | 77.05 | 78.56
333.15 K | 67.28 | 68.4 | 69.67 | 70.8 | 72.31 | 73.6 | 75.37 | 76.87
343.15 K | 65.49 | 66.4 | 67.85 | 69.5 | 70.52 | 71.87 | 73.9 | 75.73
353.15 K | 63.71 | 64.73 | 65.99 | 67.34 | 68.6 | 70.06 | 71.81 | 73.32

[Cl-].[Na+] [sodium chloride] + O
surface tension liquid-gas [mN/m]
Conditions | w1 = 0.025 | w1 = 0.05 | w1 = 0.075 | w1 = 0.1 | w1 = 0.125 | w1 = 0.15 | w1 = 0.175 | w1 = 0.2 | w1 = 0.225 | w1 = 0.25
293.15 K | 73.42 | 74.09 | 74.85 | 75.6 | 76.54 | 77.52 | 78.7 | 79.82 | 81.03 | 81.95
298.15 K | 72.63 | 73.32 | 74.15 | 74.9 | 75.8 | 76.7 | 77.82 | 78.85 | 80.32 | 81.41
303.15 K | 71.83 | 72.56 | 73.35 | 74.17 | 75.09 | 76.11 | 77.2 | 78.26 | 79.77 | 80.8
313.15 K | 70.33 | 71.12 | 71.95 | 72.81 | 73.86 | 74.9 | 75.98 | 76.99 | 78.54 | 79.7
323.15 K | 68.93 | 69.91 | 70.62 | 71.32 | 72.46 | 73.55 | 74.68 | 75.71 | 77.32 | 78.45
333.15 K | 67.21 | 68.24 | 69.21 | 70.14 | 71.18 | 72.22 | 73.43 | 74.52 | 76.01 | 77.14

[I-].[Na+] [sodium iodide] + O
surface tension liquid-gas [mN/m]
Conditions | 293.15 K | 298.15 K | 303.15 K | 313.15 K | 323.15 K | 333.15 K
w1 = 0.05 | 73.15 | 72.4 | 71.66 | 70.23 | 68.78 | 67.4
w1 = 0.1 | 73.6 | 73 | 72.22 | 70.81 | 69.34 | 67.93
w1 = 0.15 | 74.17 | 73.48 | 72.79 | 71.36 | 69.81 | 68.42
w1 = 0.2 | 74.7 | 73.96 | 73.34 | 71.85 | 70.35 | 68.86
w1 = 0.25 | 75.15 | 74.4 | 73.8 | 72.45 | 70.95 | 69.43
w1 = 0.3 | 75.5 | 74.9 | 74.26 | 72.92 | 71.56 | 69.96
w1 = 0.35 | 76.29 | 75.71 | 75.08 | 73.76 | 72.5 | 71.19
w1 = 0.4 | 77.1 | 76.5 | 75.85 | 74.6 | 73.35 | 72.24
w1 = 0.45 | 78.25 | 77.63 | 77.03 | 75.96 | 74.77 | 73.77
w1 = 0.5 | 79.35 | 78.85 | 78.34 | 77.3 | 76.17 | 75.04
w1 = 0.55 | 80.66 | 80.14 | 79.68 | 78.66 | 77.68 | 77.15

O [water] + [Br-].[K+]
w2 = 0
Conditions | surface tension liquid-gas [mN/m]
293.15 K | 72.75
303.15 K | 71.15
313.15 K | 69.55
323.15 K | 67.9
333.15 K | 66.17
343.15 K | 64.39
353.15 K | 62.61

O [water] + [Br-].[Na+]
w2 = 0
Conditions | surface tension liquid-gas [mN/m]
293.15 K | 72.75
303.15 K | 71.15
313.15 K | 69.55
323.15 K | 67.9
333.15 K | 66.17
343.15 K | 64.39
353.15 K | 62.61

O [water] + [Cl-].[K+]
w2 = 0
Conditions | surface tension liquid-gas [mN/m]
293.15 K | 72.75
303.15 K | 71.15
313.15 K | 69.55
323.15 K | 67.9
333.15 K | 66.17
343.15 K | 64.39
353.15 K | 62.61

O [water] + [Cl-].[Na+]
w2 = 0
Conditions | surface tension liquid-gas [mN/m]
293.15 K | 72.75
298.15 K | 71.97
303.15 K | 71.15
313.15 K | 69.55
323.15 K | 67.9
333.15 K | 66.17

O [water] + [I-].[K+]
w2 = 0
Conditions | surface tension liquid-gas [mN/m]
293.15 K | 72.75
298.15 K | 71.97
303.15 K | 71.15
313.15 K | 69.55
323.15 K | 67.9
333.15 K | 66.17

O [water] + [I-].[Na+]
w2 = 0
Conditions | surface tension liquid-gas [mN/m]
293.15 K | 72.75
298.15 K | 71.97
303.15 K | 71.15
313.15 K | 69.55
323.15 K | 67.9
333.15 K | 66.17
